Here are results for ten compounds from PMC6983058, “Biologically Active Echinulin-Related Indolediketopiperazines from the Marine Sediment-Derived Fungus Aspergillus niveoglaucus” (Molecules, 2019).

Series [1] can be described thus: DPPH-radical scavenger assay (cell-free). Format: biochemical. Conditions: MeOH, 30 min. On the procedure:
The DPPH radical scavenging activities of the compounds were tested as described.
The compounds were dissolved in MeOH, and the solutions (120 µL) were dispensed into wells of a 96-well microplate. In all, 30 µL of the DPPH (Sigma-Aldrich, Steinheim, Germany) solution in MeOH (7.5 × 10^−3 M) was added to each well. The concentrations of the test compounds in the mixtures were 10 and 100 µM. The mixtures were shaken and left to stand for 30 min, and the absorbance of the resulting solutions was measured at 520 nm with a microplate reader MultiscanFC (ThermoScientific, Waltham, MA, USA). The radical scavenging activities of the compounds at 100 µM are presented as % relative to the control (MeOH alone), and the concentration scavenging 50% of the DPPH radical (EC50) was calculated for each compound.
(In general: The DPPH test is a chemical assay of radical scavenging.)

The subject of series [2] is Neuro-2a cells. In words: 6-OHDA-induced cell model of Parkinson's disease (viability, MTT). Format: cell-based, murine. Conditions: 10 µM compound 1 h pretreatment, 6-OHDA 50 µM, 24 h.
Series [3] is described as follows: MTT cytotoxicity assay, Neuro-2a cells. Conditions: mouse.
Experimental: (§3) Neuro-2a cells were cultured in DMEM medium containing 10% fetal bovine serum (Biolot, St. Petersburg, Russia) and 1% penicillin/streptomycin (Invitrogen, Carlsbad, CA, USA). Cells were incubated at 37 °C in a humidified atmosphere containing 5% (v/v) CO2 [43].
(§4) The in vitro cytotoxicities of the individual substances were evaluated using an MTT (3-(4,5-dimethylthiazol-2-yl)-2,5-diphenyltetrazolium bromide) assay, which was performed according to the manufacturer’s instructions (Sigma-Aldrich, St. Louis, MO, USA). […] Docetaxel was used as a reference substance.
The subject of series [4] is Neuro-2a cells. In words: Rotenone-induced cell model of Parkinson's disease (viability, MTT). As to conditions: 10 µM compound 1 h pretreatment, rotenone 10 µM, 24 h.
Experimental: (§5) Neuroblastoma Neuro-2a line cells (1 × 10^4 cells/well) were treated with the test compounds at concentrations of 10 µM for 1 h, and then the neurotoxins at different concentrations were added to the neuroblastoma cell suspensions [40]. Rotenone (Sigma-Aldrich, USA) was used at 10 µM. Paraquat (Sigma-Aldrich, USA) was used at 500 µM. […] Cells incubated without neurotoxins and the test compounds and cells incubated with neurotoxins only were used as positive and negative controls, respectively. After 24 h of incubation, the cell viabilities were measured using the MTT method.
The test system of series [5] is Neuro-2a cells. The series can be described thus: Paraquat-induced cell model of Parkinson's disease (viability, MTT). As to conditions: 10 µM compound 1 h pretreatment, paraquat 500 µM, 24 h.
Experimental: as §5
Series [6] relates to Neuro-2a cells. The series can be described thus: ROS level in paraquat-treated Neuro-2a cells (H2DCF-DA). Type of series: cell-based, murine. Conditions: 10 µM compound 1 h, then paraquat 500 µM 1 h; neurotoxin alone 148.4 ± 6.9. The protocol:
Cell suspensions (1×10^4 cells/well) were incubated with solutions of the test compound (10 µM) for 1 h. Then, 6-hydroxydopamine solution (Sigma-Aldrich, 50 µM) or paraquat solution (Sigma-Aldrich, 500 µM) were added to each well. After 30 min (for 6-hydroxydopamine) or 1 h (for paraquat), 20 μL of 2,7-dichlorodihydrofluorescein diacetate (H2DCF-DA) solution (Molecular Probes, final concentration […]) was added to each well, and the microplate was incubated for an additional 10 min at 37 °C. The intensity of dichlorofluorescin fluorescence was measured at λex = 485 nm and λem = 518 nm. The results are presented as % relative to the control.

The conditions of series [7]: cell-free, cited from earlier work; for IC50: read-out: DPPH Scavenger Activity IC50.
For the next series, the system named is RAW264.7 cells. Conditions: murine macrophage RAW264.7; potency similar to that in Neuro-2a; cited from earlier work.
Series [8] is described as follows: MTT cytotoxicity assay, 22Rv1 cells. Format: cell-based. Conditions: human. On the procedure: (§1) 22Rv1, PC-3, and LNCaP cell lines were cultured according to the manufacturer’s instructions in 10% FBS/RPMI media (Invitrogen, Carlsbad, CA, USA). Cells were continuously kept in culture for a maximum of 3 months and were routinely inspected microscopically for stable phenotypes and regularly checked for contamination with mycoplasma. Cell line authentication was performed by DSMZ (Braunschweig, Germany) using highly polymorphic short tandem repeat loci.
(§2) Docetaxel was used as a reference substance.
For orientation: Tetrazolium assays rely on reduction of a dye to a coloured formazan, in cell work by metabolically active cells.

A short description of series [9]: MTT cytotoxicity assay, PC-3 cells. Format: cell-based. Conditions: human. The protocol: as §1, §2
A short description of series [10]: MTT cytotoxicity assay, LNCaP cells. As to conditions: human. Type of series: cell-based. On the procedure: as §1, §2
The target in series [11] is T1, urease from Canavalia ensiformis (Canavalia ensiformis, UniProt P07374).
T1 construct: purchased Sigma
T1 sequence (P07374 whole entry, looked up): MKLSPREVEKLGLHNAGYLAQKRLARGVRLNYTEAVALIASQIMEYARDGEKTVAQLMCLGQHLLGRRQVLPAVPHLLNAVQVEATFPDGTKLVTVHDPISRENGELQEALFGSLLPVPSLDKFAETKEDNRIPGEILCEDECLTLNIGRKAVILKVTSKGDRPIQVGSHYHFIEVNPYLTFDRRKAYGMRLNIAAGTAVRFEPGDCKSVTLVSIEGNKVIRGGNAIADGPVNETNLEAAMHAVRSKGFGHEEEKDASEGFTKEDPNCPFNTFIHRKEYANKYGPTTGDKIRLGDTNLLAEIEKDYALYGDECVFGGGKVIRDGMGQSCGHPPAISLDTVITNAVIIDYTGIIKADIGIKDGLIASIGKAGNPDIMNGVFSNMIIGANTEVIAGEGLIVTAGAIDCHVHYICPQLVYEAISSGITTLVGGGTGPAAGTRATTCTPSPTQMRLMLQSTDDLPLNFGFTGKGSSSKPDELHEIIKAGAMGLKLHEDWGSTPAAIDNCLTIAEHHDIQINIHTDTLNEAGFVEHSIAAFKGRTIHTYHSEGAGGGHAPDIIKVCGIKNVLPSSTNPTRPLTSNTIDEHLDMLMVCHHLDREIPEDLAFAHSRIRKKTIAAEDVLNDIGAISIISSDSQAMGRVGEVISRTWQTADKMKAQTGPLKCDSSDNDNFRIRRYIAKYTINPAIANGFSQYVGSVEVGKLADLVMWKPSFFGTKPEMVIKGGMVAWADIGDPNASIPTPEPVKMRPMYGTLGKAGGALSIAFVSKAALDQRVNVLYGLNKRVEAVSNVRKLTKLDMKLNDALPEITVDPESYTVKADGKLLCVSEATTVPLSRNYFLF
In words: Cell-free urease inhibition assay (indophenol method). Type of series: biochemical.

The test system of a further series is Staphylococcus aureus. Further details: method as in Du et al. (supplement ref 5). As to conditions: ref Du et al. (supplement ref 5); cited from earlier work.
A further series can be described thus: in vitro. As to conditions: mouse.

“Also recorded” adds a separate entry of the source. Where two headings read alike, the source gives them in different places.

Experimental for in vitro: as §3, §4

As usually defined, the IC50 is the concentration needed to halve the response being measured. Usually viability stands for a per cent measure of how many cells are alive, often set against a control. With `C=CC(C)(C)c1[nH]c2cc(CC=C(C)C)ccc2c1/C=C1\NC(=O)[C@]2(C[C@H](C)C=C[C@@H]2/C=C/c2c(O)cc(CC=C(C)C)c(O)c2C=O)NC1=O` [Compound 1a, (+)-Cryptoechinuline B], in [1], the “DPPH Scavenger Activity IC50” value was “weak” and inhibition was half-maximal at 122 ± 7.1 µM (IC50). Also, the “increase in viability of 6-OHDA-treated cells” value in the series with Neuro-2a cells [2] is given as “neuroprotective activity”. In the series with Neuro-2a cells [2] (Mus musculus, N2a, read-out: increase in viability of 6-OHDA-treated cells), the viability at 10 µM stood at 40.7%. This compound also displayed an IC50 in series [3] above 100 µM. In addition, the “increase in viability of rotenone-treated cells” value in the series with Neuro-2a cells [4] is recorded as “neuroprotective activity; also recorded: significant increases”. The “increase in viability of PQ-treated cells” value in the series on Neuro-2a cells [5] is “neuroprotective activity”.

As to `C=CC(C)(C)c1[nH]c2ccccc2c1/C=c1\[nH]c(=O)c(=C)[nH]c1=O` [Compound 4, neoechinulin B], the “ROS Level, % of Control, Paraquat (PQ)” value with Neuro-2a cells [6] is 101.8 ± 7.6 % of Control. Moreover, the half-maximal inhibitory concentration (IC50) in series [7] is 34 µM; in series [3] it was 50.9 µM. In the series with RAW264.7 cells, the “cytotoxicity against RAW264.7 cells” value is recorded as “cytotoxic”. Further, the “increase in viability of rotenone-treated cells” value in the series on Neuro-2a cells [4] was “cytoprotective activity; also recorded: significant increases”. Moreover, the “increase in viability of PQ-treated cells” value in the series on Neuro-2a cells [5] was “inactive”.

On to `C=CC(C)(C)c1[nH]c2cc(CC=C(C)C)ccc2c1/C=C1\NC(=O)[C@@]2(C[C@@H](C)C=C[C@H]2/C=C/c2c(O)cc(CC=C(C)C)c(O)c2C=O)NC1=O` [Compound 1b, (−)-Cryptoechinuline B], for which, in [1], the “DPPH Scavenger Activity IC50” value was “weak” and the IC50 is 118 ± 4.7 µM. Besides, in the series with Neuro-2a cells [2], the “increase in viability of 6-OHDA-treated cells” value was “inactive”. In [3], the IC50 is above 100 µM. Besides, the “increase in viability of rotenone-treated cells” value in the series with Neuro-2a cells [4] is “inactive”. For the same compound, in the series with Neuro-2a cells [5], the “increase in viability of PQ-treated cells” value is on record as “protected”.

On to `C=CC(C)(C)c1[nH]c2ccccc2c1C=C1NC(=O)C2(CC(C)C=CC2C=Cc2c(O)cc(CC=C(C)C)c(O)c2C=O)NC1=O` (centres unmarked) [Compound 2, cryptoechinuline D], for which, in the series on Neuro-2a cells [2], the “increase in viability of 6-OHDA-treated cells” value is reported as “did not show any cytoprotective effects”. The “DPPH Scavenger Activity IC50” value in series [7] was “strong”. The 50% inhibitory concentration (IC50) in series [7] was 23.6 µM; in [3], above 100 µM. The “increase in viability of rotenone-treated cells” value with Neuro-2a cells [4] is “did not show any cytoprotective effects”. Also, the “increase in viability of PQ-treated cells” value in the series on Neuro-2a cells [5] is “did not show any cytoprotective effects”.

As for `C=CC(C)(C)c1[nH]c2cc(CC=C(C)C)ccc2c1/C=c1\[nH]c(=O)c(=C)[nH]c1=O` [Compound 5, neoechinulin C], in the series on Neuro-2a cells [6], the “ROS Level, % of Control, Paraquat (PQ)” value was 97.4 ± 2.8 % of Control. Also, the values for the 50% inhibitory concentration (IC50) in series [7] and in series [3] were 31.1 µM and 40.6 µM, respectively. The “increase in viability of rotenone-treated cells” value in the series on Neuro-2a cells [4] is “not active”. In the series on Neuro-2a cells [5], the “increase in viability of PQ-treated cells” value was “protected”.

`C=CC(C)(C)c1[nH]c2c(CC=C(C)C)cc(CC=C(C)C)cc2c1C[C@@H]1NC(=O)[C@H](C)NC1=O` [Compound 3, echinulin]: the half-maximal inhibitory concentration (IC50) is 63.2 µM in series [8]; 41.7 µM in [9]; 25.9 µM in series [10]; 29.8 µM in [11]; 29.9 µM in series [7]; above 100 µM in series [3]. Also, the “ROS Level, % of Control, Paraquat (PQ)” value in the series with Neuro-2a cells [6] is recorded as 90.3 ± 2.2 % of Control. Further, the “antibacterial activity against Staphylococcus aureus” value with Staphylococcus aureus is listed as “antibacterial activity”. The “increase in viability of rotenone-treated cells” value with Neuro-2a cells [4] is “inactive”. In the series on Neuro-2a cells [5], the “increase in viability of PQ-treated cells” value was “inactive”.

For the compound `C=CC(C)(C)c1[nH]c2cc(CC=C(C)C)ccc2c1/C=C1\NC(=O)C(=O)NC1=O` [Compound 7, neoechinulin], the IC50 in series [8] is 49.9 µM; in series [9] it was 63.8 µM; in [10] it was 38.9 µM; in [1], 62.6 ± 1.1 µM; in series [3], above 100 µM. Besides, the “increase in viability of rotenone-treated cells” value in the series with Neuro-2a cells [4] is reported as “not active”. In addition, in the series with Neuro-2a cells [5], the “increase in viability of PQ-treated cells” value is “inactive”.

As for `NC(N)=S` [Thiourea, reference compound], the half-inhibitory concentration (IC50) in series [11] (cell-free, 0.2-100.0 µM tested, pH 7.3-7.5, read-out: urease inhibition IC50) stood at 23 µM.

Consider `CC(=O)O[C@@]12CO[C@@H]1C[C@H](O)[C@@]1(C)C(=O)[C@H](O)C3=C(C)[C@@H](OC(=O)[C@H](O)[C@@H](NC(=O)OC(C)(C)C)c4ccccc4)C[C@@](O)([C@@H](OC(=O)c4ccccc4)[C@H]21)C3(C)C` [Docetaxel, reference compound], for which the midpoint of inhibition in series [10], the IC50, lay at 0.004 µM.

For the compound `C=CC(C)(C)c1[nH]c2ccccc2c1/C=C1\NC(=O)C(=O)NC1=O` [Compound 6, neoechinulin E], the “ROS Level, % of Control, Paraquat (PQ)” value with Neuro-2a cells [6] was 94.1 ± 2.9 % of Control. Further, the IC50 in series [7] was 46 µM; in the series “in vitro” it was above 100 µM. In addition, the “increase in viability of rotenone-treated cells” value in the series on Neuro-2a cells [4] is “significant increases”.
